Source: publication PMC11036078, “PD‐1 inhibition with retifanlimab and/or arginase inhibition with INCB001158 in Japanese patients with solid tumors: A phase I study” (Cancer Medicine, 2024)
“And” between values parts separate entries of the source, which are not always exact repeats. Equal entries are not always repeated. Where two headings read alike, the source gives them in different places.

Tests used:
arginase [1] = assay: Pharmacodynamics: plasma arginine levels; format: in vivo, Japanese patients; settings: change from baseline
Description: (§1) Pharmacodynamics of INCB001158 alone or in combination were assessed as an exploratory objective. Urine was collected at regular intervals from patients in the INCB001158 monotherapy and combination groups to assess urinary orotic acid levels and evaluate whether INCB001158 inhibits the urea cycle. Plasma samples from patients in these groups were also assessed for ammonia, arginine, and ornithine levels.

tumor growth = test system: tumor growth; design: method as in PMID 29254508; settings: preclinical; cited from earlier work
advanced solid tumors = assay: Clinical activity by investigator per RECIST v1.1 (ORR, DCR, DOR); format: in vivo, Japanese patients; settings: n = 6 per group
Description: Preliminary clinical activity of single‐agent retifanlimab and INCB001158, and the combination, was an additional secondary endpoint. Diagnostic imaging was performed by computed tomography scan every 8 ± 1 weeks. Clinical activity was assessed by measuring overall response rate (ORR), defined as the percentage of patients experiencing a complete or partial response (CR or PR) as determined by the investigator according to Response Evaluation Criteria in Solid Tumors (RECIST) v1.1; disease control rate (DCR), defined as the percentage of patients maintaining either an objective response or stable disease (SD) for at least 12 weeks per RECIST v1.1; and duration of response (DOR), defined as the time from first observed response until onset of progressive disease (PD) as determined by the investigator according to RECIST v1.1 or death from any cause.
Safety and efficacy analyses were conducted in the full analysis set, which comprised all enrolled patients who received at least 1 dose of the study drug.
Safety data were summarized using descriptive statistics. PK parameters were summarized by study part, treatment regimen, cohort, dose levels, and/or visit. ORR and DCR were reported with their exact 95% confidence intervals (CIs); DOR was based on the Kaplan–Meier estimate of the distribution function, and the estimated median along with 95% CI was reported. Statistical analyses were performed using SAS® software v9.4 or later (SAS Institute Inc., Cary, NC, USA).

[2] = INCB001158 plasma pharmacokinetics (LC-MS/MS, noncompartmental analysis); format: in vivo, Japanese patients; settings: for Cmax: read-out: INCB001158 geometric mean Cmax
Description: Pharmacokinetics of single‐agent retifanlimab and INCB001158, and the combination, were secondary endpoints of the study. The detection of anti‐drug antibodies (ADAs) was an exploratory endpoint. Blood samples for retifanlimab PK assessments were taken on days 1 (−2 h pre‐dose, end of infusion, and 6 h post‐dose), 2, 8, and 15 (no specified time) of cycle 1, day 1 of cycles 2–8 (−2 h pre‐dose, and end of infusion on cycles 2 and 6 only), and day 1 of every 4 cycles after cycle 8 (−2 h pre‐dose). Samples for ADA assessment were collected at the same time as for PK analysis, and an additional sample was collected at safety follow‐up on day 15 (no specified time). Blood samples for INCB001158 were collected pre‐dose, 0.5, 1, 2, 4, 6, and 8 h post‐dose on days 1 and 15 of cycle 1, 12 h post‐dose on day 1 of cycle 1, and pre‐dose on days 2 and 8 for cycle 1, and day 1 of cycle 2. Serum concentrations of retifanlimab were determined using an electrochemiluminescence immunoassay method, and plasma concentrations of INCB001158 were measured using a validated liquid chromatography with tandem mass spectrometry assay (Incyte Corporation, Wilmington, DE, USA). ADAs against retifanlimab were monitored using a bridging immunoassay (Incyte Corporation).
Pharmacokinetics parameters were derived from concentrations versus time data using model‐independent noncompartmental analysis methods (WinNonlin v8.2, Certara USA Inc., Princeton, NJ, USA), and included maximum observed serum or plasma concentration (C max), serum or plasma concentration observed at the end of the dosing interval (C tau), time to maximum observed serum or plasma concentration (t max), area under the serum or plasma concentration–time curve (AUC) from time 0 to the end of the dosing interval (AUCtau), AUC from time 0 to infinity (AUC0‐∞), apparent terminal‐phase disposition half‐life, clearance, and volume of distribution. […]

[3] = test system: advanced/metastatic solid tumours; settings: cited from earlier work
urea cycle = assay: Pharmacodynamics: urinary orotic acid and plasma ammonia (urea cycle inhibition); format: in vivo, Japanese patients
Description: as §1

arginase [4] = test system: arginase; design: method as in earlier work; settings: phase I/II studies; cited from earlier work
T‐cell proliferation = test system: T‐cell proliferation; design: method as in PMID 29254508; settings: preclinical; cited from earlier work
[5] = steady-state, 100 mg BID oral, monotherapy: two individual values (n = 2), combination n = 5 mean ± SD (geometric mean)
[6] = INCB001158 monotherapy, 33 patients with microsatellite‐stable metastatic colorectal cancer
[7] = in combination with gemcitabine/cisplatin, phase I/II, advanced biliary tract cancer
[8] = in combination with pembrolizumab, 43 patients with microsatellite‐stable colorectal cancer

For C[C@H](N)C(=O)N1C[C@H](CCCB(O)O)[C@](N)(C(=O)O)C1 [INCB001158], the Plasma arginine levels (arginase [1]) is given as “Immediate and consistent increases”, the “Antitumor activity in mouse models” value (tumor growth) is given as “demonstrated antitumor activity” and the “Tumor growth when combined with ICB” value (tumor growth) is given as “synergistically inhibited tumor growth”. The “Best overall response: Complete response” value (advanced solid tumors; RECIST v1.1, investigator) was 0 n (%), the “Best overall response: Partial response” value (advanced solid tumors; RECIST v1.1, investigator) was 0 n (%) and the “Best overall response: Progressive disease” value (advanced solid tumors; RECIST v1.1, investigator) was 3 (50.0) n (%). For the same compound, the “Best overall response: Stable disease” value (advanced solid tumors; RECIST v1.1, investigator) was 3 n (%) and 3 (50.0) n (%), the Objective response rate (advanced solid tumors; RECIST v1.1, investigator) was 0 [0–45.9] n (%) [95% CI] and the “DCR” value (advanced solid tumors; RECIST v1.1, 95% CI, 11.8–88.2) was 50%. The “PK of INCB001158 in combination with retifanlimab versus INCB001158 monotherapy” value ([2]; Japanese patients) was “comparable”, the “Drug–drug interaction (INCB001158 PK, combination vs monotherapy cohorts)” value ([2]; combination cohort) was “no drug–drug interaction” and the AUC ([2]; human, plasma, oral, 100 mg, first dose, 100 mg BID monotherapy, read-out: INCB001158 geometric mean AUC0‐∞) was 17900 ng·h/mL. The AUC ([2]; human, plasma, oral, 100 mg, first dose, 100 mg BID monotherapy, read-out: INCB001158 geometric mean AUCtau) was 13700 ng·h/mL, the Cmax ([2]; human, plasma, oral, 100 mg, first dose, 100 mg BID monotherapy) was 1740 ng/mL and the Tmax ([2]; human, plasma, oral, 100 mg, first dose, 100 mg BID monotherapy, read-out: INCB001158 median tmax) was 3.9 h. The AUC ([2]; human, plasma, oral, 100 mg, steady‐state, 100‐mg BID monotherapy, read-out: INCB001158 geometric mean AUCtau) was 23200 ng·h/mL, the Cmax ([2]; human, plasma, oral, 100 mg, steady‐state, 100‐mg BID monotherapy) was 2690 ng/mL and the Tmax ([2]; human, plasma, oral, 100 mg, steady‐state, 100‐mg BID monotherapy, read-out: INCB001158 median tmax) was 3.8 h. It also gave a Tmax ([2]; human, plasma, po, 75 mg, first dose, 75 mg BID oral, n = 3, median (min, max), read-out: INCB001158 tmax) of 3.9 h, a Tmax ([2]; human, plasma, po, 75 mg, steady-state, 75 mg BID oral, n = 3, median (min, max), read-out: INCB001158 tmax) of 3.9 h and a Tmax ([2]; human, plasma, po, 100 mg, first dose, 100 mg BID oral, monotherapy n = 3, combination n = 6, median (min, max), read-out: INCB001158 tmax) of 3.9 h. For the same compound, the Tmax ([2]; human, plasma, po, 100 mg, steady-state, 100 mg BID oral, monotherapy n = 3, combination n = 5, median (min, max), read-out: INCB001158 tmax) was 3.8 h, the Vd/F ([2]; human, plasma, po, 100 mg, steady-state, 100 mg BID oral, monotherapy: two individual values (n = 2), combination n = 5 mean ± SD (geometric mean), read-out: INCB001158 Vz/F) was 44.9 L and the half-life ([2]; human, plasma, po, 100 mg, steady-state, 100 mg BID oral, monotherapy: two individual values (n = 2), combination n = 5 mean ± SD (geometric mean), read-out: INCB001158 t½ (converted)) was 6.25 h. The “INCB001158 Vz/F” value [2, 5] was 39.3 L, the “INCB001158 t½” value [2, 5] was 5.50 h and the “INCB001158 geometric mean Ctau” value ([2]; steady‐state, 100‐mg BID monotherapy) was 1130 ng/mL. For the same compound, the DCR [3, 6] was 27%, the “Number of PRs” value [3, 6] was 1 and the ORR [3, 7] was 24%. For the same compound, the “Patients with SD” value [3, 7] was 42%, the DCR [3, 8] was 30% and the “Number of PRs” value [3, 8] was 3. The Urine orotic acid (urea cycle; change from baseline) was “no marked rises”, the “Symptoms of significant urea cycle inhibition” value (urea cycle; e.g., unexplained anorexia, nausea, vomiting) was “no symptoms” and the Plasma ammonia (urea cycle; patients receiving INCB001158) was “no concurrent increases”. The Urea cycle inhibition (urea cycle; patients receiving INCB001158) was “no evidence of consistent urea cycle inhibition”, the Plasma arginine levels (arginase [4]) was “increase in plasma arginine levels” and the “T‐cell proliferation in the presence of inhibitory granulocytes” value (T‐cell proliferation) was “restored T‐cell proliferation”.
